Source: ChEMBL document CHEMBL1201862, “PubChem BioAssay data set” (2004)
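Exposure lasted 48 hours, with cells grown in 96-well plates and compounds tested at five concentrations. GI50 marks 50% less growth.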 The source made the active and inactive calls. Rule as the data show it: active = GI50 up to about 1.1 µM and inactive = higher.

Tests used:
Assay in all cases: DTP human tumour cell line panel, 48 h
[1] = tested on: SNB-19
[2] = tested on: SK-OV-3
[3] = tested on: NCI-H522
[4] = tested on: UACC-257
[5] = tested on: K562
[6] = tested on: 786-0
[7] = tested on: Malme-3M
[8] = tested on: COLO 205
[9] = tested on: EKVX
[10] = tested on: UACC-62
[11] = tested on: SNB-75
[12] = tested on: LOX IMVI
[13] = tested on: SF-539
[14] = tested on: SW-620
[15] = tested on: OVCAR-8
[16] = tested on: SF-295
[17] = tested on: MDA-MB-435
[18] = tested on: DU-145
[19] = tested on: MCF7

Measured: GI50

COc1ccc2nc3cc(Cl)ccc3c(SCC(=O)Nc3ccccc3-c3ccccc3NC(=O)CSc3c4ccc(Cl)cc4nc4ccc(OC)cc34)c2c1
inactive: [1] > 100 µM | [2] > 100 µM | [3] > 100 µM | [4] > 100 µM | [5] > 100 µM | [6] > 100 µM | [7] > 100 µM | [8] > 100 µM | [9] > 100 µM | [10] > 100 µM | [11] > 100 µM | [12] > 100 µM | [13] > 100 µM | [14] > 100 µM | [15] > 100 µM | [16] > 100 µM

CC(CO)(CBr)COC(=O)c1cc(Br)c(N)c(Br)c1 (stereo not drawn)
inactive: [1] 54.7 µM | [17] 98.9 µM | [2] 83.9 µM | [4] > 100 µM | [5] > 100 µM | [6] 50.1 µM | [8] > 100 µM | [9] 37.4 µM | [10] > 100 µM | [18] 48.8 µM | [12] > 100 µM | [13] > 100 µM | [14] > 100 µM | [15] > 100 µM | [16] 37.4 µM

Cc1cc(C)c(C#N)c(SC(=S)NC(=O)c2ccc(Cl)cc2)n1
inactive: [1] > 100 µM | [17] > 100 µM | [2] > 100 µM | [4] > 100 µM | [6] > 100 µM | [8] > 100 µM | [9] > 100 µM | [10] > 100 µM | [11] > 100 µM | [18] > 100 µM | [12] > 100 µM | [14] > 100 µM | [15] > 100 µM | [19] > 100 µM | [16] > 100 µM

O=C1NC(=S)NC(=O)C1=Cc1ccc[nH]1
inactive: [1] 25.8 µM | [2] > 100 µM | [3] 1.87 µM | [4] 20.9 µM | [5] 11.2 µM | [6] 10.6 µM | [7] 19.9 µM | [8] 12.2 µM | [9] 24 µM | [10] 16.7 µM | [11] 18 µM | [12] 9.06 µM | [13] 15.1 µM | [14] 4.81 µM | [15] 4.71 µM | [16] 10.5 µM

NC1C2(CCCCCC2)NC(=O)C12CCCCCC2 (stereo not drawn)
inactive: [1] > 100 µM | [2] > 100 µM | [3] > 100 µM | [4] > 100 µM | [5] > 100 µM | [6] > 100 µM | [7] > 100 µM | [8] > 100 µM | [9] > 100 µM | [10] > 100 µM | [11] > 100 µM | [12] > 100 µM | [13] > 100 µM | [14] > 100 µM | [15] > 100 µM | [16] > 100 µM

C[N+]12c3ccccc3O[B-]1(c1ccccc1)Oc1ccccc12 (stereo not drawn)
inactive: [1] 66.1 µM | [2] 33.7 µM | [3] 15.3 µM | [4] 27.1 µM | [5] 28.6 µM | [6] 35.9 µM | [7] 40 µM | [8] 63.8 µM | [9] 84.5 µM | [10] 37.4 µM | [11] 19.9 µM | [12] 16.1 µM | [13] 26.9 µM | [14] 28.1 µM | [15] 28.6 µM | [16] 41 µM

CNc1nnc(CCCCCCCCc2nnc(NC)o2)o1
inactive: [1] > 100 µM | [17] 63.8 µM | [2] > 100 µM | [4] 51.8 µM | [5] 31.9 µM | [6] 21.1 µM | [8] > 100 µM | [9] > 100 µM | [11] > 100 µM | [18] > 100 µM | [12] 16.4 µM | [13] > 100 µM | [14] 40.7 µM | [15] 34.8 µM | [19] 20.7 µM | [16] 75.2 µM

Cc1cccc(-c2cc(=O)c3cc(C)c(C)c(C(=O)O)c3o2)c1
inactive: [1] > 100 µM | [2] > 100 µM | [3] > 100 µM | [4] > 100 µM | [5] > 100 µM | [6] > 100 µM | [7] > 100 µM | [8] > 100 µM | [9] > 100 µM | [10] > 100 µM | [11] > 100 µM | [12] > 100 µM | [13] > 100 µM | [14] > 100 µM | [15] > 100 µM | [16] > 100 µM

C=C(C[N+](C)(C)C)N/N=C/c1oc(-c2ccc(OC)c(OC)c2)c(-c2ccc(OC)c(OC)c2)c1[N+](=O)[O-]
inactive: [1] 34.4 µM | [2] 30.3 µM | [3] 23.2 µM | [4] 20.2 µM | [5] 19.1 µM | [6] 17.6 µM | [7] > 10 µM | [8] 16.4 µM | [9] > 100 µM | [10] > 10 µM | [11] 19.4 µM | [18] 34.1 µM | [12] 15 µM | [13] 16.7 µM | [14] 18.7 µM | [15] 15.8 µM | [16] 17.5 µM
